Reference: patent US10441588B2, “Methods and compositions for treating bacterial infection” (Curators of the University of Missouri, priority 2012, dated 2019)

How the values were obtained:
S. epidermis = S. epidermis growth inhibition, optical density, test/control; format: cell-based, Staphylococcus epidermidis; conditions: for activity at 100 µM: Staphylococcus epidermidis, growth of bacteria test/control by optical density
S. epidermis biofilm = S. epidermis biofilm inhibition, optical density, test/control; conditions: for activity at 100 µM / activity at 5 µM / activity at 50 µM: Staphylococcus epidermidis; for activity at 100 µM: read-out: S. epidermis Biofilm inhibition 100 μM vs. (−) Control, 100 μM; for activity at 100 µM / S. epidermis Biofilm inhibition 10 μM vs. (−) Control / activity at 5 µM / activity at 50 µM: growth of biofilm test/control by optical density; for activity at 5 µM: read-out: S. epidermis Biofilm inhibition 5 μM vs. (−) Control, 5 μM; for activity at 50 µM: read-out: S. epidermis Biofilm inhibition 50 μM vs. (−) Control, 50 μM
S. aureus = S. aureus growth inhibition, optical density, test/control; format: cell-based, Staphylococcus aureus; conditions: growth of bacteria test/control by optical density; for activity at 100 µM: Staphylococcus aureus
S. aureus biofilm = S. aureus biofilm inhibition, optical density, test/control; format: cell-based, Staphylococcus aureus; conditions: for activity at 100 µM / activity at 10 µM / activity at 5 µM / activity at 50 µM: Staphylococcus aureus; for activity at 5 µM: read-out: S. aureus Biofilm Inhibition 5 μM vs. (−) Control; for activity at 50 µM: read-out: S. aureus Biofilm Inhibition 50 μM vs. (−) Control
S. aureus Newman biofilm = S. aureus Newman biofilm formation in microtiter plates; format: cell-based
Description: (§1) These compounds were then tested on staphylococcus biofilm formation. […] The two compounds (CCG-203592 and CCG-205363) were tested on S. aurues strain RN6390, which is reported to be more prone to biofilm formation than Newman strain.

S. aurues strain RN6390 = assay: S. aureus RN6390 bacterial growth; format: cell-based; conditions: at 20 μM
Description: as §1

[1] = system: S. aureus RN6390 strain biofilm; assay: microbe, parasite or virus in culture; format: cell-based
[2] = system: S. aureus virulence factor genes; assay: S. aureus virulence factor gene expression, real time RT-PCR; format: cell-based; conditions: RN6390, 50 μM; ML, LL and S growth phase
E. coli flagellin (fliC) = assay: microbe, parasite or virus in culture; format: cell-based; conditions: Escherichia coli, 6 h; for activity at 5 µM: read-out: E. coli flagellin production, Relative Level vs. Control, 5 μM; for activity at 25 µM: read-out: E. coli flagellin production, Relative Level vs. Control, 25 μM
P. aeruginosa = P. aeruginosa wound infection in DIO mice; format: in vivo; conditions: female DIO mice, 10^8 CFU; vancomycin treatment alone
[3] = 100 μM, growth of biofilm test/control by optical density
[4] = growth of biofilm test/control by optical density

C=CCn1c(SCc2ccc(OC)cc2)nc2c(c1=O)C1(CCCCC1)Cc1ccccc1-2 [CCG-102483]
activity at 100 µM (S. epidermis): 129%
activity at 100 µM (S. epidermis biofilm): 78.6%

C=CCn1c(NCC)nc2c(c1=O)C1(CCCCC1)Cc1ccccc1-2 [CCG-203043]
activity at 100 µM (S. aureus): 70%
activity at 100 µM (S. aureus biofilm; [3]): 43.5%
S. epidermidis bacterial growth (S. epidermis; RP62A strain): without inhibition of bacterial growth
S. epidermis Biofilm inhibition 10 μM vs. (−) Control (S. epidermis biofilm): 0.169
S. epidermidis biofilm formation (S. epidermis biofilm; RP62A strain, microtiter plate): strong inhibition
activity at 100 µM (S. epidermis biofilm): 45%

C=CCn1c(NCC)nc2c(c1=O)C(C)(C)Cc1ccccc1-2 [CCG-203804]
activity at 100 µM (S. aureus): 66.2%
activity at 100 µM (S. aureus biofilm; [3]): 10.3%
activity at 100 µM (S. epidermis): 103%
S. epidermis Biofilm inhibition 10 μM vs. (−) Control (S. epidermis biofilm): 0.858

COCCSc1nc(OCC2OCCO2)c2c(n1)-c1ccccc1CC2(C)C [CCG-204030, 4-((1,3-dioxolan-2-yl)methoxy)-2-((2-methoxyethyl)thio)-5,5-dimethyl-5,6-dihydrobenzo[h]-quinazoline]
Growth Inhibition 100 μM vs. (−) Control (S. aureus): 0.919
S. aureus Biofilm Inhibition 100 μM vs. (−) Control (S. aureus biofilm; [3]): 0.589
activity at 100 µM (S. epidermis): 111%
activity at 100 µM (S. epidermis biofilm): 73.9%

COCCOCCOc1nc(SCCOC)nc2c1C(C)(C)Cc1ccccc1-2 [CCG-204033, 4-(2-(2-Methoxyethoxy)ethoxy)-2-((2-methoxyethyl)thio)-5,5-dimethyl-5,6-dihydrobenzo[h]-quinazoline]
activity at 100 µM (S. aureus): 83.8%
activity at 100 µM (S. aureus biofilm; [3]): 59.9%
activity at 100 µM (S. epidermis): 103%
activity at 100 µM (S. epidermis biofilm): 75.6%

C=CCSc1nc2c(c(=O)n1CC=C)C(C)(C)Cc1cc(OC)ccc1-2 [CCG-205363]
activity at 100 µM (S. aureus): 95%
S. aureus Newman biofilm formation (S. aureus Newman biofilm): consistent inhibition
activity at 10 µM (S. aureus biofilm; [4]): 63.1%
activity at 100 µM (S. aureus biofilm; [3]): 44%
bacteria growth (S. aurues strain RN6390): without inhibiting bacteria growth
IC50, inhibition of S. aureus biofilm formation [1]: low μM range
IC50 ([1]; Staphylococcus aureus, read-out: IC50, inhibition of RN6390 biofilm formation): 6.96 ± 0.76 µM
S. aureus virulence factor gene expression [2]: inhibited gene expression

COCCSc1nc(OCCCO)c2c(n1)-c1ccccc1CC2(C)C [CCG-205384, 3-((2-((2-Methoxyethyl)thio)-5,5-dimethyl-5,6-dihydrobenzo[h]quinazolin-4-yl)oxy)propan-1-ol]
activity at 100 µM (S. aureus): 93.5%
activity at 100 µM (S. aureus biofilm; [3]): 16%
activity at 100 µM (S. epidermis): 100%
S. epidermis Biofilm inhibition 10 μM vs. (−) Control (S. epidermis biofilm): 1.095

COCCSc1nc2c(c(=O)n1CCCO)C(C)(C)Cc1ccccc1-2 [CCG-205390, 3-(3-Hydroxypropyl)-2-((2-methoxyethyl)thio)-5,5-dimethyl-5,6-dihydrobenzo[h]quinazolin-4(3H)-one]
activity at 100 µM (S. aureus): 89.1%
activity at 100 µM (S. aureus biofilm; [3]): 52.5%
S. epidermis Biofilm inhibition 10 μM vs. (−) Control (S. epidermis biofilm): 0.921

C=CCn1c(SCC)nc2c(c1=O)C(C)(C)Cc1cc(OCCN(CC)CC)ccc1-2 [CCG-205396, 3-Allyl-8-(2-(diethylamino)ethoxy)-2-(ethylthio)-5,5-dimethyl-5,6-dihydrobenzo[h]-quinazolin-4(3H)-one]
activity at 10 µM (S. aureus biofilm; [4]): 68.4%
activity at 100 µM (S. aureus biofilm; [3]): 6.2%
activity at 100 µM (S. epidermis): 13%
activity at 100 µM (S. epidermis biofilm): 3.7%

C=CCn1c(SCC)nc2c(c1=O)C(C)(C)Cc1cc(OCCN3CCOCC3)ccc1-2 [CCG-205427]
activity at 100 µM (S. aureus): 92.8%
activity at 10 µM (S. aureus biofilm; [4]): 73.4%
activity at 100 µM (S. epidermis): 98%
activity at 100 µM (S. epidermis biofilm): 76.6%

C=CCn1c(SCCOC)nc2c(c1=O)C1(CCNCC1)Cc1ccccc1-2 [CCG-205447, 3-Allyl-2-((2-methoxyethyl)thio)-3H-spiro[benzo[h]quinazoline-5,4′-piperidin]-4(6H)-one]
activity at 100 µM (S. aureus): 90%
activity at 10 µM (S. aureus biofilm; [4]): 110%
activity at 100 µM (S. epidermis): 104%
S. epidermis Biofilm inhibition 10 μM vs. (−) Control (S. epidermis biofilm): 0.936

C=CCn1c(SCCOC)nc2c(c1=O)C1(CCN(C(=O)CCCC)CC1)Cc1ccccc1-2 [CCG-206227, 3-Allyl-2-((2-methoxyethyl)thio)-1′-pentanoyl-3H-spiro[benzo[h]quinazoline-5,4′-piperidin]-4(6H)-one]
biofilm formation by S. aureus (S. aureus biofilm): inhibit biofilm formation
activity at 10 µM (S. aureus biofilm; [4]): 52.8%
activity at 100 µM (S. aureus biofilm; [3]): 27%
activity at 100 µM (S. epidermis): 141%
biofilm formation by S. epidermis (S. epidermis biofilm): inhibit biofilm formation
S. epidermis Biofilm inhibition 10 μM vs. (−) Control (S. epidermis biofilm): 0.943

C=CCn1c(SCCOC)nc2c(c1=O)C(C)(C)Cc1cc(C(=O)NCCO)ccc1-2 [CCG-206239, 3-allyl-N-(2-hydroxyethyl)-2-((2-methoxyethyl)thio)-5,5-dimethyl-4-oxo-1,2,3,4,5,6-hexahydrobenzo[h]quinazoline-8-carboxamide]
activity at 100 µM (S. aureus biofilm; [3]): 32.7%
activity at 100 µM (S. epidermis): 111%

CCSc1nc2c(c(=O)n1C)C(C)(C)Cc1ccc(OC)cc1-2 [CCG-206353]
activity at 100 µM (S. aureus): 92.1%
activity at 10 µM (S. aureus biofilm; [4]): 49.4%
activity at 100 µM (S. aureus biofilm; [3]): 32.3%
S. epidermis Biofilm inhibition 10 μM vs. (−) Control (S. epidermis biofilm): 1.053
activity at 100 µM (S. epidermis biofilm): 34.7%

C=CCn1c(SCCOC)nc2c(c1=O)C1(CCN(Cc3ccccc3)CC1)Cc1cc(OC)ccc1-2 [CCG-208982, 3-allyl-1′-benzyl-8-methoxy-2-((2-methoxyethyl)thio)-3H-spiro[benzo[h]quinazoline-5,4′-piperidin]-4(6H)-one]
activity at 5 µM (S. aureus biofilm; [4]): 76.5%
activity at 50 µM (S. aureus biofilm; [4]): 31.9%
activity at 5 µM (S. epidermis biofilm): 98.7%
activity at 50 µM (S. epidermis biofilm): 66%

C=CCn1c(SCCOC)nc2c(c1=O)C1(CCN(C(=O)NC)CC1)Cc1cc(OC)ccc1-2 [CCG-211970, 3-allyl-8-methoxy-2-((2-methoxyethyl)thio)-N-methyl-4-oxo-4,6-dihydro-3H-spiro[benzo[h]quinazoline-5,4′-piperidine]-1′-carboxamide]
activity at 5 µM (S. aureus biofilm; [4]): 69%
activity at 50 µM (S. aureus biofilm; [4]): 58%
activity at 5 µM (S. epidermis biofilm): 79%
activity at 50 µM (S. epidermis biofilm): 67%

COc1ccc2c(c1)CC1(CCNCC1)c1c(OC)nc(SCC#N)nc1-2 [CCG-212014, 2((4,8-dimethoxy-6H-spiro[benzo[h]quinazoline-5,4′-piperidin]-2-yl)thio)acetonitrile]
activity at 5 µM (S. aureus biofilm; [4]): 77%
activity at 50 µM (S. aureus biofilm; [4]): 52%
activity at 5 µM (S. epidermis biofilm): 105%
activity at 50 µM (S. epidermis biofilm): 63%

COc1ccc2c(c1)CC1(CCNCC1)c1c(OCC#N)nc(SCC#N)nc1-2 [CCG-212015, 2-((4-(cyanomethoxy)-8-methoxy-6H-spiro[benzo[h]quinazoline-5,4′-piperidin]-2-yl)thio)acetonitrile]
activity at 5 µM (S. aureus biofilm; [4]): 94%
activity at 50 µM (S. aureus biofilm; [4]): 33%
activity at 5 µM (S. epidermis biofilm): 93%
activity at 50 µM (S. epidermis biofilm): 48%

COc1ccc2c(c1)CC(C)(C)c1c-2nc(SCC(F)(F)F)n(C)c1=O [IV501]
activity at 5 µM (E. coli flagellin (fliC)): 36.2%
activity at 25 µM (E. coli flagellin (fliC)): 47.5%

COc1ccc2c(c1)CC(C)(C)c1c-2nc(SCC(F)(F)F)[nH]c1=O [IVG-00601-00A01]
activity at 5 µM (E. coli flagellin (fliC)): 85.3%
activity at 25 µM (E. coli flagellin (fliC)): 3.96%

COc1ccc2c(c1)CC(C)(C)c1c(OC)nc(SCC(F)(F)F)nc1-2 [IVG-00607-00A01]
activity at 5 µM (E. coli flagellin (fliC)): 63.4%
activity at 25 µM (E. coli flagellin (fliC)): 27.5%

COc1ccc2c(c1)CC(C)(C)c1c-2nc(S)n(C)c1=O [IVG-00608-00A01]
activity at 5 µM (E. coli flagellin (fliC)): 82.8%
activity at 25 µM (E. coli flagellin (fliC)): 48.9%

COc1ccc2c(c1)CC(C)(C)c1c-2nc(NCCO)n(C)c1=O [IVG-00610-00A01]
activity at 5 µM (E. coli flagellin (fliC)): 31.6%
activity at 25 µM (E. coli flagellin (fliC)): 8.83%

COc1ccc2c(c1)CC(C)(C)c1c-2nc(NCC(F)(F)F)n(C)c1=O [IVG-00611-00A01]
activity at 5 µM (E. coli flagellin (fliC)): 19.6%
activity at 25 µM (E. coli flagellin (fliC)): 13.6%

COc1ccc2c(c1)CC(C)(C)c1c-2nc(N(C)CCO)n(C)c1=O [IVG-00612-00A01]
activity at 5 µM (E. coli flagellin (fliC)): 18.1%
activity at 25 µM (E. coli flagellin (fliC)): 12.9%

CCNc1nc2c(c(=O)n1C)C(C)(C)Cc1cc(OC)ccc1-2 [IVG-00613-00A01]
activity at 5 µM (E. coli flagellin (fliC)): 34.2%
activity at 25 µM (E. coli flagellin (fliC)): 13.9%

COc1ccc2c(c1)CC(C)(C)c1c-2nc(OCC(F)(F)F)n(C)c1=O [IVG-00614-00A01]
activity at 5 µM (E. coli flagellin (fliC)): 24.4%
activity at 25 µM (E. coli flagellin (fliC)): 26.2%

CN[C@H](CC(C)C)C(=O)N[C@H]1C(=O)N[C@@H](CC(N)=O)C(=O)N[C@H]2C(=O)N[C@H]3C(=O)N[C@H](C(=O)N[C@H](C(=O)O)c4cc(O)cc(O)c4-c4cc3ccc4O)[C@H](O)c3ccc(c(Cl)c3)Oc3cc2cc(c3O[C@@H]2O[C@H](CO)[C@@H](O)[C@H](O)[C@H]2O[C@H]2C[C@](C)(N)[C@H](O)[C@H](C)O2)Oc2ccc(cc2Cl)[C@H]1O [vancomycin, reference compound]
survival (P. aeruginosa): 40%
